Test results taken from patent US20250059141A1, “TLR MODULATOR AND USE THEREOF” (DUALITY BIOLOGICS (SUZHOU) CO., LTD., priority 2021, published 2025).
Read-outs that look alike come from different tables or passages of the source.

Legend:
[1] = biological target: T1, hTLR8 (human Toll-like receptor 8) (Homo sapiens, UniProt Q9NR97); assay: HEK-Blue hTLR8 reporter assay (QUANTI-Blue, OD650); assay type: cell-based; conditions: HEK-Blue hTLR8 cells, 24 h, read-out: Reporter assay TLR8 EC50
T1 construct: host or cells: HEK-Blue hTLR8 (HEK293-derived reporter cells)
T1 sequence (Q9NR97 27-1041): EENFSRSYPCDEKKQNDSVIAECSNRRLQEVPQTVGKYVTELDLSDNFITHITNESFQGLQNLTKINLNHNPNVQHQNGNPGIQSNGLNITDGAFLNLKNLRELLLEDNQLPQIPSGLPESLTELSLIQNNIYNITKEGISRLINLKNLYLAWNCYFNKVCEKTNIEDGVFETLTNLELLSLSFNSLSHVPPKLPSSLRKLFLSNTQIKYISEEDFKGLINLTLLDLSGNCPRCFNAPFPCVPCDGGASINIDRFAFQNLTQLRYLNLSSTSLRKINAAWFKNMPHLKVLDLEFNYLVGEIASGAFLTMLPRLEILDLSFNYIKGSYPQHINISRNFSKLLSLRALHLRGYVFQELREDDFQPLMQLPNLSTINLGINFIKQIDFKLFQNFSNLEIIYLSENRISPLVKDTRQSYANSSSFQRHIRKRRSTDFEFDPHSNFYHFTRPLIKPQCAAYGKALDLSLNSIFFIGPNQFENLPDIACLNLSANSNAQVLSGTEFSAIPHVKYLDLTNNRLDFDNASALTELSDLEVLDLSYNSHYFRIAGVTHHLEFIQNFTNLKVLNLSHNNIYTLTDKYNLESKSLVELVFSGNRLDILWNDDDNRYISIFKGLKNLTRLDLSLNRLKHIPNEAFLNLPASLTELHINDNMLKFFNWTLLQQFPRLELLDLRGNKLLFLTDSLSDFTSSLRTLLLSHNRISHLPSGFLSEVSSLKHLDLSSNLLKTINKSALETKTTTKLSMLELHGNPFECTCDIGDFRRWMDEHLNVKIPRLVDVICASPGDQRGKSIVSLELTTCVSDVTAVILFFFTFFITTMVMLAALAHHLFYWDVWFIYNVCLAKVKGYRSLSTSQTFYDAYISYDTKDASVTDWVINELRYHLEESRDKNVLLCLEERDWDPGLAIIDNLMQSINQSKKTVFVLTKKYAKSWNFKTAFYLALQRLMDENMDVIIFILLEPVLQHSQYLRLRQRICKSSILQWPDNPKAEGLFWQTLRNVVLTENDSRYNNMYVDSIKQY
Description: (§1) In this example, the agonistic activity of the compounds of the present application on hTLR7 (human Toll-like receptor 7) and hTLR8 (human Toll-like receptor 8) was assessed; the induction activity of the compounds on human PBMCs for TNF-α and IFN-α production was assessed in human PBMCs (human peripheral blood mononuclear cells).
(§2) All compounds were formulated in DMSO into 30 mM stock solutions and preserved at 4° C. The reference compound ([…], Cat. No. tlrl-r848-5) was purchased from InvivoGen and formulated into a 5 mg/mL stock solution in DMSO and preserved in a freezer at −20° C. HEK-Blue hTLR7 and HEK-Blue hTLR8 cell lines were purchased from InvivoGen, and human PBMCs were purchased from Shanghai Saily Biotechnology Co., Ltd. (Cat. No. XFB—HP100B).
(§3) The major instruments used in this study were multifunctional microplate reader Flexstation III (Molecular Device), Envision (Perkin Elmer), M2e (Molecular Device), and Echo555 (Labcyte). 2.1 Agonistic activity of compounds on hTLR7 (human Toll-like receptor 7) and hTLR8 (human Toll-like receptor 8)
(§4) Compound dilution: The compounds of the present application are diluted in DMSO, for example, to about 15 mM. The reference compound was added to the plates in sequence after dilution. The compounds were serially 3-fold diluted to 10 concentrations and added to 96-well plates in duplicate.
(§5) For the negative control wells, DMSO was added at 0.2 μL/well, and the reference compound was added to the positive control wells. The final concentration of DMSO was 0.2%.
(§6) Cell plating: When an 80% confluence of HEK Blue hTLR7&8 cells in the culture flask was observed under a microscope, the culture medium was discarded, 10 mL of detection medium was added, and the cells were separated by pipetting. The cells were counted on a cytometer and diluted to 500,000 cells/mL. The cells were plated at 100 μL/50,000 cells/well in the 96-well plates containing the compounds. The compounds and cells were co-incubated at 37° C. in a 5% CO2 incubator for 24 hours.
(§7) Compound activity detection: 20 μL of cell supernatant was taken from each well and added to a plate containing QUANTI-Blue™ reagent at 180 μL/well. The plate was incubated at 37° C. for 1 hour, and the absorbance at 650 nm (OD650) was measured on the multifunctional microplate reader Flexstation III.
(§8) Compound activity data analysis: The OD650 values were analyzed by GraphPad Prism software and fitted to give dose-response curves of the compounds. The EC50 values of compounds were calculated.

[2] = biological target: T2, hTLR7 (human Toll-like receptor 7) (Homo sapiens, UniProt Q9NYK1); assay: HEK-Blue hTLR7 reporter assay (QUANTI-Blue, OD650); assay type: cell-based; conditions: HEK-Blue hTLR7 cells, 24 h, read-out: Reporter assay TLR7 EC50
T2 construct: host or cells: HEK-Blue hTLR7 (HEK293-derived reporter cells)
T2 sequence (Q9NYK1 27-1049): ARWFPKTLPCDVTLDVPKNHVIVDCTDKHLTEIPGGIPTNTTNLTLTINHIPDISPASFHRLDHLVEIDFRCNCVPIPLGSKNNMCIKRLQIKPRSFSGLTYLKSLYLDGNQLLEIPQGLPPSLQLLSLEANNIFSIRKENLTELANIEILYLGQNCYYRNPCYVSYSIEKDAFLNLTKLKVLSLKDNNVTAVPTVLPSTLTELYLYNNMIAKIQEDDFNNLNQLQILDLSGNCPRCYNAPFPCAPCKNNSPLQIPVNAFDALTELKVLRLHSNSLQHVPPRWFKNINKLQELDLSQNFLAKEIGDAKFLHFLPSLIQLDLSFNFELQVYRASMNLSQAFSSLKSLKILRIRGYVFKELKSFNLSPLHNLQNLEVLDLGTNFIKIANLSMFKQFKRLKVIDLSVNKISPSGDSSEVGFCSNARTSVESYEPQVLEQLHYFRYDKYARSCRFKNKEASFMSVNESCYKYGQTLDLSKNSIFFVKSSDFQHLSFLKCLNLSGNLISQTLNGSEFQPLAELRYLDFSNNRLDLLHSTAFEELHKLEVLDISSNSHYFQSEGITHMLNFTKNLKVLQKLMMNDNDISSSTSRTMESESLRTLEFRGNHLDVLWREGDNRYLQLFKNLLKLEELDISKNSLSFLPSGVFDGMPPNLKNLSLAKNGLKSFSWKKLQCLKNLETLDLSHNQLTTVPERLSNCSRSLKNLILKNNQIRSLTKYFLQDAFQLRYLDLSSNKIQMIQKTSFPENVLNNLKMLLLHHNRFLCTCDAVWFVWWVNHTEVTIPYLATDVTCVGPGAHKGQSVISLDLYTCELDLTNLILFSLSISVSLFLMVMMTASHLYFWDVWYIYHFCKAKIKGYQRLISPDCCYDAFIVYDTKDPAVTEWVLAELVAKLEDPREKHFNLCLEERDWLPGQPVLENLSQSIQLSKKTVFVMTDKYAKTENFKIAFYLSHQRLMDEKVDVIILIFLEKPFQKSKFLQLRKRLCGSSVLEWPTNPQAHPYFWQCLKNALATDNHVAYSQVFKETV
Description: as §1, §2, §3, §4, §5, §6, §7, §8

Row | SMILES | EC50 ([1]; class symbols) [nM] | EC50 ([2]; class symbols) [nM] | EC50 [1] [nM] | EC50 [2] [nM]
1 | CCCN(OCc1ccc(N)cc1)C(=O)C1=Cc2ccc(C(=O)N3CC[C@@H](O)C3)cc2N=C(N)C1 [Compound 46A] | 10 to 100 | > 1000 |  | 
2 | CCCN(OCc1ccc(N)cc1)C(=O)C1=Cc2ccc(C(=O)N3CCOCC3)cc2N=C(N)C1 [Compound 39] |  |  | 2.8 | 3550
3 | CCCN(OCc1ccc(N)cc1)C(=O)C1=Cc2ccc(C(=O)N3CC[C@H](O)C3)cc2N=C(N)C1 [Compound 46B] | 10 to 100 | > 1000 |  | 
